Experimental data from patent US9533977B2, “Oxazolidinone derivative as CETP inhibitor, its preparation method, and pharmaceutical composition comprising the same” (DONG-A ST CO., LTD., priority 2013, dated 2017).

Target: T1, CETP (Homo sapiens, UniProt P11597)
T1 construct: from tissue; host or cells: human plasma from healthy men
T1 sequence (P11597 18-493): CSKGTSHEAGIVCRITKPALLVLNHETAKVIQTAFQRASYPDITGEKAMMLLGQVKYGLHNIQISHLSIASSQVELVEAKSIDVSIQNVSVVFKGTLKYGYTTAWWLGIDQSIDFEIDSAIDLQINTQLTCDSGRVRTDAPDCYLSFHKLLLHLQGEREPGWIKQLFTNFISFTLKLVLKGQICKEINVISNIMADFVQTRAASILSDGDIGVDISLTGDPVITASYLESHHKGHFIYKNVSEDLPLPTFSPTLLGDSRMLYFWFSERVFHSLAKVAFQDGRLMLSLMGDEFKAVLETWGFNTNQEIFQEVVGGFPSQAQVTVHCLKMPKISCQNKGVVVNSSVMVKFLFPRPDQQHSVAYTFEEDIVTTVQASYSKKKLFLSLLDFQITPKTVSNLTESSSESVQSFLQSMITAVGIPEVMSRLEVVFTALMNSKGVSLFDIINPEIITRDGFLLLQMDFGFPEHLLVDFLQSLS
Experiment: Inhibitory activity against CETP in human plasma (Roar CETP activity kit, fluorescence)
Assay type: biochemical
Conditions: plasma from healthy men diluted 1:10 in assay buffer, 37° C., 3 hrs, fluorescence 465/535 nm; read-out: IC50, Inhibition of CETP Activity in Human Plasma
Procedure: A CETP activity kit (#RB-CETP) was purchased from Roar […], Inc. A donor and an acceptor (each, 4 ul), a 10× assay buffer (177 ul), and each of dilutions of test compounds in dimethylsulfoxide (DMSO, Sigma-Aldrich) (0.01 nM˜10000 nM) were added to each well of black round-bottom 96-well plates (Corning #3792). Plasma samples from healthy men were diluted in the assay buffer (1:10=plasma:assay buffer), and added to each well. The plates were sealed with a sealing film (Sigma-Aldrich, #Z369659), and incubated in a 37° C. incubator microplate shaker (#SLST-3, Seolin Bio) for 3 hrs. After removal of the sealing film, fluorescence was read on Spectra Max Gemini EM (Molecular devices) with an excitation wavelength of 465 nm and an emission wavelength of 535 nm. Measurements were calculated according to the following formula. Calculated value=(Fluorescence Intensity with both compound and plasma−Fluorescence Intensity with compound but without plasma)/(Fluorescence Intensity with plasma but without compound−Fluorescence Intensity with neither compound nor plasma)
From the calculated value, a sigmoidal curve (y=start+(end-start)x^n/k^n+x^n) was drawn using Origin Software (OriginLab Corporation, ver. 8.0724) to obtain IC50 values.

IC50 [nM] | SMILES
100 | CCN(c1ncc(C(F)(F)F)cc1CN1C(=O)O[C@H](c2cc(C(F)(F)F)cc(C(F)(F)F)c2)[C@@H]1C)C1CC[S+]([O-])CC1 (stereo partly drawn) [Example 26, (4S,5R)-5-[3,5-bis(trifluoromethyl)phenyl]-4-methyl-3-({[2-(ethyl)(1-oxidotetrahydro-2H-thiopyran-4-yl)amino]-5-(trifluoromethyl)pyridin-3-yl}methyl)-oxazolidin-2-one]
2.4 | CCN(c1ncc(N2CCCC2)cc1CN1C(=O)O[C@H](c2cc(C(F)(F)F)cc(C(F)(F)F)c2)[C@@H]1C)C1CCOCC1 [Example 41, (4S,5R)-5-[3,5-bis(trifluoromethyl)phenyl]-4-methyl-3-({[2-(ethyl)(tetrahydro-2H-pyran-4-yl)amino]-5-(pyrrolidin-1-yl)pyridin-3-yl}methyl)-oxazolidin-2-one]
10 | CCN(c1ncc(C(F)(F)F)cc1CN1C(=O)O[C@H](c2cc(C(F)(F)F)cc(C(F)(F)F)c2)[C@@H]1C)C1CCCOC1 (stereo partly drawn) [Example 15, (4S,5R)-5-[3,5-bis(trifluoromethyl)phenyl]-4-methyl-3-({[2-ethyl(tetrahydro-2H-pyran-3-yl)amino]-5-(trifluoromethyl)pyridin-3-yl}methyl)-oxazolidin-2-one]
151 | CCN(c1ncc(-c2cnn(C)c2)cc1CN1C(=O)O[C@H](c2cc(C(F)(F)F)cc(C(F)(F)F)c2)[C@@H]1C)C1CCCCC1 [Example 62, (4S,5R)-5-[3,5-bis(trifluoromethyl)phenyl]-4-methyl-3-({[2-(ethyl)(cyclohexyl)amino]-5-(1-methyl-1H-pyrazol-4-yl)pyridin-3-yl}methyl)-oxazolidin-2-one]
10 | CCN(c1ncc(C(F)(F)F)cc1CN1C(=O)O[C@H](c2cc(C(F)(F)F)cc(C(F)(F)F)c2)[C@@H]1C)C1CCC(=O)CC1 [Example 22, (4S,5R)-5-[3,5-bis(trifluoromethyl)phenyl]-4-methyl-3-({[2-(ethyl)(4-oxocyclohexyl)amino]-5-(trifluoromethyl)pyridin-3-yl}methyl)-oxazolidin-2-one]
62 | CCC(=O)N1CCC(N(CC)c2ncc(C(F)(F)F)cc2CN2C(=O)O[C@H](c3cc(C(F)(F)F)cc(C(F)(F)F)c3)[C@@H]2C)CC1 [Example 34, (4S,5R)-5-[3,5-bis(trifluoromethyl)phenyl]-4-methyl-3-({[2-(ethyl)(1-propionylpiperidin-4-yl)amino]-5-(trifluoromethyl)pyridin-3-yl}methyl)-oxazolidin-2-one]
98 | CCN(c1ncccc1CN1C(=O)O[C@H](c2cc(C(F)(F)F)cc(C(F)(F)F)c2)[C@@H]1C)C1CCOCC1 [Example 14, (4S,5R)-5-[3,5-Bis(trifluoromethyl)phenyl]-4-methyl-3-({[2-ethyl(tetrahydro-2H-pyran-4-yl)amino]-pyridin-3-yl}methyl)-oxazolidin-2-one]
31.1 | CCN(c1ncc(-c2ccc(C)o2)cc1CN1C(=O)O[C@H](c2cc(C(F)(F)F)cc(C(F)(F)F)c2)[C@@H]1C)C1CCCCC1 [Example 75, (4S,5R)-5-[3,5-bis(trifluoromethyl)phenyl]-4-methyl-3-({[2-(ethyl)(cyclohexyl)amino]-5-(2-methyl-furan-5-yl)pyridin-3-yl}methyl)-oxazolidin-2-one]
60 | C[C@H]1[C@@H](c2cc(C(F)(F)F)cc(C(F)(F)F)c2)OC(=O)N1Cc1cc(C(F)(F)F)cnc1N(C1CCOCC1)C1CC1 [Example 10]
185 | CCN(c1ncc(C(F)(F)F)cc1CN1C(=O)O[C@H](c2cc(C(F)(F)F)cc(C(F)(F)F)c2)[C@@H]1C)C1CCC(CC(=O)OC)CC1 (stereo partly drawn) [Example 24, methyl 2-(4-{[3-({(4S,5R)-5-[3,5-bis(trifluoromethyl)phenyl]-4-methyl-2-oxo-oxazolidin-3-yl}methyl)-5-(trifluoromethyl)pyridin-2-yl](ethyl)amino}cyclohexyl)acetate]
143 | CCN(c1ncc(C(F)(F)F)cc1CN1C(=O)O[C@H](c2cc(C(F)(F)F)cc(C(F)(F)F)c2)[C@@H]1C)C1CCOC1 (stereo partly drawn) [Example 2, (4S,5R)-5-[3,5-bis(trifluoromethyl)phenyl]-4-methyl-3-{(2-[ethyl(tetrahydrofuran-3-yl)amino]-5-(trifluoromethyl)pyridin-3-yl)methyl}-oxazolidin-2-one]
26.9 | CCN(c1ncc(-c2ccccc2)cc1CN1C(=O)O[C@H](c2cc(C(F)(F)F)cc(C(F)(F)F)c2)[C@@H]1C)C1CCOCC1 [Example 45, (4S,5R)-5-[3,5-bis(trifluoromethyl)phenyl]-4-methyl-3-({[2-(ethyl)(tetrahydro-2H-pyran-4-yl)amino]-5-phenylpyridin-3-yl}methyl)-oxazolidin-2-one]
317 | C[C@H]1[C@@H](c2cc(C(F)(F)F)cc(C(F)(F)F)c2)OC(=O)N1Cc1cc(C(F)(F)F)cnc1N(C1CCC1)C1CCOCC1 [Example 11, (4S,5R)-5-[3,5-bis(trifluoromethyl)phenyl]-4-methyl-3-({[2-(cyclobutyl)(tetrahydro-2H-pyran-4-yl)amino]-5-(trifluoro)methylpyridin-3-yl}methyl)-oxazolidin-2-one]
57 | CCN(c1ncc(N2CCCCC2)cc1CN1C(=O)O[C@H](c2cc(C(F)(F)F)cc(C(F)(F)F)c2)[C@@H]1C)C1CCOCC1 [Example 44, (4S,5R)-5-[3,5-bis(trifluoromethyl)phenyl]-4-methyl-3-({[2-(ethyl)(tetrahydro-2H-pyran-4-yl)amino]-5-(piperidin-1-yl)pyridin-3-yl}methyl)-oxazolidin-2-one]
430 | CCN(c1ncc(C(F)(F)F)cc1CN1C(=O)O[C@H](c2cc(C(F)(F)F)cc(C(F)(F)F)c2)[C@@H]1C)C1CCN(C(=O)OC(C)(C)C)CC1 [Example 27, t-butyl 4-{[3-({(4S,5R)-5-[3,5-bis(trifluoromethyl)phenyl]-4-methyl-2-oxo-oxazolidin-3-yl}methyl)-5-(trifluoromethyl)pyridin-2-yl](ethyl)amino}piperidine-1-carboxylate]
15.6 | Cc1noc(C)c1-c1cnc(N2CCCC(C(F)(F)F)C2)c(CN2C(=O)O[C@@H](c3cc(C(F)(F)F)cc(C(F)(F)F)c3)[C@@H]2C)n1 (stereo partly drawn) [Example 100, (4S,5S)-5-[3,5-bis(trifluoromethyl)phenyl]-3-{[6-(3,5-dimethylisoxazol-4-yl)-3-[3-(trifluoromethyl)piperidin-1-yl]pyrazin-2-yl]methyl}-4-methyloxazolidin-2-one]
3.45 | CCN(CC1CCCC1)c1ncc(-c2c(C)noc2C)nc1CN1C(=O)O[C@H](c2cc(C(F)(F)F)cc(C(F)(F)F)c2)[C@@H]1C [Example 101, (4S,5R)-5-[3,5-bis(trifluoromethyl)phenyl]-3-({[3-(cyclopentylmethyl)(ethyl)amino]-4-methyl 6-(3,5-dimethylisoxazol-4-yl)pyrazin-3-yl}methyl)-oxazolidin-2-one]
169 | CCN(c1ncc(-c2c[nH]nc2C(F)(F)F)cc1CN1C(=O)O[C@H](c2cc(C(F)(F)F)cc(C(F)(F)F)c2)[C@@H]1C)C1CCCCC1 [Example 72, (4S,5R)-5-[3,5-bis(trifluoromethyl)phenyl]-4-methyl-3-({[2-(ethyl)(cyclohexyl)amino]-5-(3-(trifluoromethyl)-1H-pyrazol-4-yl)pyridin-3-yl}methyl)-oxazolidin-2-one]
0.65 | CCN(C[C@H]1CC[C@H](CC(=O)O)CC1)c1ncc(-c2c(C)noc2C)nc1CN1C(=O)OC(c2cc(C(F)(F)F)cc(C(F)(F)F)c2)[C@@H]1C (stereo partly shown) [Example 102]
